This passage reports IC50 results from patent US12030883B2, “Hetero-tricyclic compounds as inhibitors of KRAS” (Incyte Corporation, priority 2021, dated 2024).

Assay [1] deals with T1, KRAS G12D (Homo sapiens, UniProt P01116, G12D). As to the kind of experiment: GDP-GTP exchange assay, KRAS G12D (bodipy-GDP/GppNHp, SOS1). It is filed as biochemical. As to conditions: bodipy-loaded KRAS G12D 2.5 nM, 4 hours pre-incubation with inhibitor, SOS1 150 nM, GppNHp 500 uM; read-out: G12D_exchange (KRAS_G12D exchange assay IC50). As for the experimental part: (§1) The inhibitor potency of the exemplified compounds was determined in a fluorescence based guanine nucleotide exchange assay, which measures the exchange of bodipy-GDP (fluorescently labeled GDP) for GppNHp (Non-hydrolyzable GTP analog) to generate the active state of KRAS in the presence of SOS1 (guanine nucleotide exchange factor). Inhibitors were serially diluted in DMSO and a volume of 0.1 μL was transferred to the wells of a black low volume 384-well plate. Five μL/well volume of bodipy-loaded KRAS G12D or G12V diluted to a final concentration of 2.5 nM in assay buffer (25 mM Hepes pH 7.5, 50 mM NaCl, 10 mM MgCl2 and 0.01% Brij-35) was added to the plate and pre-incubated with inhibitor for 4 hours (G12D) or 3 hours (G12V) at ambient temperature. A cyclic peptide described to selectively bind G12D mutant (Sakamoto et al., BBRC 484.3 (2017), 605-611) or internal compounds with confirmed binding were used as positive controls in the assay plates. The exchange was initiated by the addition of a 5 μL/well volume containing 1 mM GppNHp and 300 nM SOS1 in assay buffer. The 10 μL/well reaction concentration of the bodipy-loaded KRAS G12D or G12V, GppNHp, and SOS1 were 2.5 nM, 500 uM, and 150 nM, respectively.
T1 sequence (P01116 1-188 isoform P01116-2 G12D): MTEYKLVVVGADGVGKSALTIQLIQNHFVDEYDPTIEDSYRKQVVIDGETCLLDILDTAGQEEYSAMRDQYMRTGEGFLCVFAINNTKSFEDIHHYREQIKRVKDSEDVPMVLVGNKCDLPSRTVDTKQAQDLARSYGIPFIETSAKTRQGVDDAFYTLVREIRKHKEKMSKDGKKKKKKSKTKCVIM
(§2) Either GraphPad prism or XLfit was used to analyze the data. The IC50 values were derived by fitting the data to a four parameter logistic equation producing a sigmoidal dose-response curve with a variable Hill coefficient. Prism equation: Y=Bottom+(Top−Bottom)/(1+10^((LogIC50-X)*Hill slope)); XLfit equation: Y=(A+((B−A)/(1+((X/C)^D)))) where X is the logarithm of inhibitor concentration and Y is the response.

For assay [2], the target named is T1, KRAS G12D. As to the kind of experiment: KRAS_G12D pERK assay (cellular pERK HTRF assay). It is filed as cell-based. Further details: host or cells: A427 or HPAF-II. The settings on record: KRAS G12D cells (A427, HPAF-II named in method), 2 hours incubation, Phospho-ERK 1/2 HTRF; read-out: G12D_PERK (KRAS_G12D pERK assay IC50). As for the experimental part:
MIA PaCa-2 (KRAS G12C; ATCC® CRL-1420), A427 (KRAS G12D; ATCC® HTB53), HPAF-II (KRAS G12D; ATCC® CRL-1997) and NCI-H838 (KRAS WT; ATCC® CRL-5844) cells are purchased from ATCC and maintained in RPMI 1640 media supplemented with 10% FBS (Gibco/Life Technologies). The cells are plated at 5000 cells per well (8 uL) into Greiner 384-well low volume, flat-bottom, tissue culture treated white plates and incubated overnight at 37° C., 5% CO2. The next morning, test compound stock solutions are diluted in media at 3× the final concentration, and 4 uL are added to the cells. The plate is mixed by gentle rotation for 30 seconds (250 rpm) at room temperature. The cells are incubated with the KRAS G12C and G12D compounds for 4 hours or 2 hours respectively at 37° C., 5% CO2.
4 uL of 4× lysis buffer with blocking reagent (1:25) (Cisbio) are added to each well and plates are rotated gently (300 rpm) for 30 minutes at room temperature. 4 uL per well of Cisbio anti Phospho-ERK 1/2 d2 is mixed with anti Phospho-ERK 1/2 Cryptate (1:1) are added to each well, mixed by rotation and incubated overnight in the dark at room temperature. Plates are read on the Pherastar plate reader at 665 nm and 620 nm wavelengths. IC50 determination is performed by fitting the curve of inhibitor percent inhibition versus the log of the inhibitor concentration using the GraphPad Prism 7 software.

Another assay concerns the target KRAS G12V (Homo sapiens, UniProt P01116, G12V). As to the kind of experiment: GDP-GTP exchange assay, KRAS G12V (bodipy-GDP/GppNHp, SOS1). It is filed as biochemical. The settings on record: bodipy-loaded KRAS G12V 2.5 nM, 3 hours pre-incubation with inhibitor, SOS1 150 nM, GppNHp 500 uM; read-out: G12V_exchange (KRAS_G12V exchange assay IC50). As for the experimental part: as §1, §2

Chain of KRAS G12V (P01116 1-188 isoform P01116-2 G12V): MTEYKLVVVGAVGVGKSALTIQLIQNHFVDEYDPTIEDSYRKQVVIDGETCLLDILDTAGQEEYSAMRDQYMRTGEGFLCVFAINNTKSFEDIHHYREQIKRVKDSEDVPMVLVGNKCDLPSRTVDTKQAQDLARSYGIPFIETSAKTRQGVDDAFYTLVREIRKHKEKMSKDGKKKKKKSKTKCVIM

As for `Cn1cnc(-c2nc3c(F)c(-c4cc(O)cc5ccccc45)c(CCC#N)cc3c3c2NC(=O)CN3C2C3CNC2C3)c1` (single isomer, unassigned) [Example 7a, 3-(1-((endo)-2-Azabicyclo[2.1.1]hexan-5-yl)-7-fluoro-8-(3-hydroxynaphthalen-1-yl)-5-(1-methyl-1H-imidazol-4-yl)-3-oxo-1,2,3,4-tetrahydropyrazino[2,3-c]quinolin-9-yl)propanenitrile], the IC50 was no more than 0.1 µM on KRAS G12D [1], 0.1 to 1 µM at KRAS G12D [2] and no more than 0.1 µM at KRAS G12V.

Consider `N#CCCc1cc2c3c(cnc2c(F)c1-c1cc(O)cc2ccccc12)NC(=O)CN3[C@@H]1[C@@H]2CN[C@H]1C2` (racemic) [Example 20a, 3-(1-((endo)-2-Azabicyclo[2.1.1]hexan-5-yl)-7-fluoro-8-(3-hydroxynaphthalen-1-yl)-3-oxo-1,2,3,4-tetrahydropyrazino[2,3-c]quinolin-9-yl)propanenitrile], for which the IC50 is no more than 0.1 µM on KRAS G12D [1], 5 to 10 µM at KRAS G12D [2] and no more than 0.1 µM on KRAS G12V.

As for `CNC(=O)c1ccc(-c2nc3c(F)c(-c4cc(O)cc5ccccc45)c(CCC#N)cc3c3c2NC(=O)CN3C2C3CNC2C3)cn1` (single isomer, unassigned) [Example 5a, 5-(1-((endo)-2-Azabicyclo[2.1.1]hexan-5-yl)-9-(2-cyanoethyl)-7-fluoro-8-(3-hydroxynaphthalen-1-yl)-3-oxo-1,2,3,4-tetrahydropyrazino[2,3-c]quinolin-5-yl)-N-methylpicolinamide], the IC50 at KRAS G12D [1] was no more than 0.1 µM; at KRAS G12D [2] it was 5 to 10 µM; at KRAS G12V it was no more than 0.1 µM.

For the molecule `N#CCCc1cc2c3c(c(OC[C@@]45CCCN4C[C@H](F)C5)nc2c(F)c1-c1cc(O)cc2ccccc12)NC(=O)CN3C1C2CNC1C2` (single isomer, unassigned) [Example 10a], the IC50 at KRAS G12D [1] was no more than 0.1 µM; at KRAS G12D [2], 1 to 5 µM; at KRAS G12V it was no more than 0.1 µM.

Turning to `N#CCCc1cc2c3c(c(-c4ccc5cccnc5c4)nc2c(F)c1-c1cc(O)cc2ccccc12)NC(=O)CN3C1C2CNC1C2` (single isomer, unassigned) [Example 6a, 3-(1-((endo)-2-Azabicyclo[2.1.1]hexan-5-yl)-7-fluoro-8-(3-hydroxynaphthalen-1-yl)-3-oxo-5-(quinolin-7-yl)-1,2,3,4-tetrahydropyrazino[2,3-c]quinolin-9-yl)propanenitrile], the IC50 at KRAS G12D [1] is no more than 0.1 µM; at KRAS G12D [2], 1 to 5 µM; at KRAS G12V, no more than 0.1 µM.

`N#CCCc1cc2c3c(c(OC[C@@]45CCCN4C[C@H](F)C5)nc2c(F)c1-c1cc(O)cc2ccccc12)NC(=O)CN3C1C2CNC1C2` (single isomer, unassigned) [Example 10b]: the IC50 on KRAS G12D [1] was no more than 0.1 µM; at KRAS G12D [2], 1 to 5 µM; on KRAS G12V, no more than 0.1 µM.
